In patent US20240391954A1, “MC4R AGONIST PEPTIDES” (The Regents of the University of Michigan, priority 2021, published 2024):
Where two headings read alike, the source gives them in different places. Positions of bridges follow the written chain, without caps; N, C: chain ends. Non-standard residues stand in square brackets, D forms with d. Residues, ends and D or L forms follow the SMILES beside them. dBip = N[C@H](Cc1ccc(-c2ccccc2)cc1)C(=O)O; dPhe(4-Br) = N[C@H](Cc1ccc(Br)cc1)C(=O)O; dPhe(4-I) = N[C@H](Cc1ccc(I)cc1)C(=O)O; d2Nal = N[C@H](Cc1ccc2ccccc2c1)C(=O)O; d(αMeF) = C[C@@](N)(Cc1ccccc1)C(=O)O; d(hPhe) = N[C@H](CCc1ccccc1)C(=O)O; dTic = O=C(O)[C@H]1Cc2ccccc2CN1; Cit = NC(=O)NCCC[C@H](N)C(=O)O; Nle = CCCC[C@H](N)C(=O)O; Aib = CC(C)(N)C(=O)O

Experiments:
human MC4R = target: T1, human MC4R (Homo sapiens, UniProt P32245); experiment: split-luciferase cAMP sensor assay, agonist mode (measurement window 1), hMC4R; type: cell-based; conditions: for Emax / EC50 / MC4R cAMP % max activation: agonist mode; for Emax: read-out: MC4R cAMP % max activation
T1 construct: host or cells: HEK-293 cells stably expressing the GScAMP22F split-luciferase cAMP sensor and hMC4R, G418 selection
T1 sequence (P32245 whole entry): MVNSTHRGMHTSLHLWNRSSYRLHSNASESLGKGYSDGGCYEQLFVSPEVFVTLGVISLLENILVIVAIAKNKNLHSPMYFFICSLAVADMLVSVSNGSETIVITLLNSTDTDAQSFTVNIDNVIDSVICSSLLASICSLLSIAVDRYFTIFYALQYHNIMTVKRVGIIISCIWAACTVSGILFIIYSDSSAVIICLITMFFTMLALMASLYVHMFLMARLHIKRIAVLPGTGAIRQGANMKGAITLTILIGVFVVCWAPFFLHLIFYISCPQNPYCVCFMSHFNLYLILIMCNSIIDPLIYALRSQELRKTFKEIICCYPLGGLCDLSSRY
Method in brief: (§1)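 EC50 values come from a four-parameter variable-slope fit of luminescence in measurement window 1, capturing direct peptide effects on receptor-expressing cells with a cAMP22f luciferase sensor. Cells were preloaded with 4% D-luciferin, serum-free medium; 20 μM forskolin normalized for cell number and transducer efficiency.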

human MC3R = target: T2, human MC3R (Homo sapiens, UniProt P41968); experiment: split-luciferase cAMP sensor assay, agonist mode (measurement window 1), hMC3R; type: cell-based; conditions: for Emax / EC50 / MC3R cAMP % max activation: agonist mode; for Emax: read-out: MC3R cAMP % max activation
T2 construct: expressed in transfected cells; host or cells: HEK-293 cells stably expressing the GScAMP22F split-luciferase cAMP sensor (parent reporter line from Promega); MC3R clone generated in-house, G418 selection
T2 sequence (P41968 whole entry): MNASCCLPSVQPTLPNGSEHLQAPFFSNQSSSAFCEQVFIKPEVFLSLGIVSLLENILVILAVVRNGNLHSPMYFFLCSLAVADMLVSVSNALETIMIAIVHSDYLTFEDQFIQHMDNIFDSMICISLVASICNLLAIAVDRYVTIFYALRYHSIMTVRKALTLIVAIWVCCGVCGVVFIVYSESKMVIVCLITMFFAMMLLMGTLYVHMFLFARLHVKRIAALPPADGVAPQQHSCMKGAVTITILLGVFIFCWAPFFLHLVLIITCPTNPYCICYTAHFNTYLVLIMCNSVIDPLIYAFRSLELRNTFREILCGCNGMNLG
Method in brief: as §1

[1] = hMC4R stable cell line, read-out: MC4R cAMP EC50
[2] = hMC3R stable cell line, read-out: MC3R cAMP EC50

| Compound | MC4R selectivity vs MC1R (human MC4R) | MC4R selectivity vs MC3R (human MC4R) | Emax (human MC4R; hMC4R stable cell line) | EC50 (human MC4R; [1]) | Emax (human MC3R; hMC3R stable cell line) | EC50 (human MC3R; [2]) | other results |
| --- | --- | --- | --- | --- | --- | --- | --- |
| CCCC[C@H](NC(=O)[C@H](CCCNC(=N)N)NC(C)=O)C(=O)N[C@H]1CSSC[C@@H](C(N)=O)NC(=O)[C@@H](Cc2c[nH]c3ccccc23)NC(=O)[C@H](CCCNC(=N)N)NC(=O)[C@@H](Cc2ccc(I)cc2)NC(=O)[C@H](Cc2c[nH]cn2)NC1=O [CTX-1233, Arg-Nle-cyclo(Cys-His-D-Phe(4-I)-Arg-D-Trp-Cys)] (Ac-R[Nle]CH[dPhe(4-I)]R[dW]C-NH2; disulfide 3-8 (inferred)) | 0.26 | 1.88 | 16% | 2.2 nM | 22% | 4.1 nM |  |
| CCCC[C@H](NC(=O)[C@H](CCCNC(=N)N)NC(C)=O)C(=O)N[C@H]1CSSC[C@@H](C(N)=O)NC(=O)[C@H](Cc2c[nH]c3ccccc23)NC(=O)[C@H](CCCNC(=N)N)NC(=O)[C@@H](Cc2ccc(OC)cc2)NC(=O)[C@H](CCCNC(=N)N)NC1=O [CTX-1614, Arg-Nle-cyclo(Cys-Arg-D-Tyr(4-OMe)-Arg-Trp-Cys)] (Ac-R[Nle]CR[dY](Me)RWC-NH2; disulfide 3-8 (inferred)) | 0.08 | 1.89 | 41% | 1.7 nM | 28% |  |  |
| CC(=O)N[C@@H](CCCNC(=N)N)C(=O)N[C@H]1CSSC[C@@H](C(N)=O)NC(=O)[C@@H](Cc2c[nH]c3ccccc23)NC(=O)[C@H](CCCNC(=N)N)NC(=O)[C@@H](Cc2ccccc2)NC(=O)[C@H](Cc2c[nH]cn2)NC(=O)[C@@H](C)NC1=O [CTX-1262, Arg-cyclo(Cys-D-Ala-His-D-Phe-Arg-D-Trp-Cys)] |  |  |  |  |  |  | Emax (human MC4R; % maximal activation): 88%; Emax (human MC3R; % maximal activation): 65% |
| CC(=O)N[C@@H](CCCNC(=N)N)C(=O)N[C@H]1CSSC[C@@H](C(N)=O)NC(=O)[C@H](Cc2c[nH]c3ccccc23)NC(=O)[C@@H](CCCNC(=N)N)NC(=O)[C@@H](Cc2ccccc2)NC(=O)[C@H](CCCNC(=N)N)NC(=O)[C@@H](C)NC1=O [CTX-1282, Arg-cyclo(Cys-D-Ala-Arg-D-Phe-D-Arg-Trp-Cys)] (Ac-RC[dA]R[dF][dR]WC-NH2; disulfide 2-8 (inferred)) | 0.14 | 0.38 | 72% |  | 4.2% |  |  |
| CC(=O)N[C@@H](CCCNC(=N)N)C(=O)N[C@H]1CSSC[C@@H](C(N)=O)NC(=O)[C@@H](Cc2c[nH]c3ccccc23)NC(=O)[C@H](CCCNC(N)=O)NC(=O)[C@@H](Cc2ccc(Br)cc2)NC(=O)[C@H](CCCNC(=N)N)NC(=O)[C@@H](C)NC1=O [CTX-1253, Arg-cyclo(Cys-D-Ala-Arg-D-Phe(4-Br)-Cit-D-Trp-Cys)] (Ac-RC[dA]R[dPhe(4-Br)][Cit][dW]C-NH2; disulfide 2-8 (inferred)) | 0.57 | 0.53 | 58% |  | 9.2% | 4 nM |  |
| CCCC[C@H](NC(C)=O)C(=O)N[C@H]1CSSC[C@@H](C(N)=O)NC(=O)[C@@H](Cc2c[nH]c3ccccc23)NC(=O)[C@H](CCCNC(=N)N)NC(=O)[C@@H](Cc2ccc(I)cc2)NC(=O)[C@H](Cc2c[nH]cn2)NC1=O [CTX-1234, Nle-cyclo(Cys-His-D-Phe(4-I)-Arg-D-Trp-Cys)] (Ac-[Nle]CH[dPhe(4-I)]R[dW]C-NH2; disulfide 2-7 (inferred)) | 0.2 | 1.32 | 16% | 2.6 nM | 18% |  |  |
| COc1ccc(C[C@H]2NC(=O)[C@H](CCCNC(N)=O)NC(=O)C(C)(C)NC(=O)[C@@H](NC(=O)[C@H](CCCNC(=N)N)NC(C)=O)CSSC[C@@H](C(N)=O)NC(=O)[C@@H](Cc3c[nH]c4ccccc34)NC(=O)[C@H](CCCNC(=N)N)NC2=O)cc1 [CTX-1600, Arg-cyclo(Cys-Aib-Cit-D-Tyr(4-OMe)-Arg-D-Trp-Cys)] (Ac-RC[Aib][Cit][dY](Me)R[dW]C-NH2; disulfide 2-8) | >70 | >70 | 58% |  |  | > 10000 nM |  |
| CC(=O)N[C@@H](CCCNC(=N)N)C(=O)N[C@H]1CSSC[C@@H](C(N)=O)NC(=O)[C@@H](Cc2ccccc2)NC(=O)[C@H](CCCNC(=N)N)NC(=O)[C@@H](Cc2ccc(Br)cc2)NC(=O)[C@H](CCCNC(=N)N)NC(=O)[C@@H](C)NC1=O [CTX-1255, Arg-cyclo(Cys-D-Ala-Arg-D-Phe(4-Br)-Arg-D-Phe-Cys)] (Ac-RC[dA]R[dPhe(4-Br)]R[dF]C-NH2; disulfide 2-8 (inferred)) | 0.05 | 0.24 | 60% |  | 28% |  |  |
| CC(=O)N[C@@H](CCCNC(=N)N)C(=O)N[C@H]1CSSC[C@@H](C(N)=O)NC(=O)[C@@H](Cc2c[nH]c3ccccc23)NC(=O)[C@H](CCCNC(=N)N)NC(=O)[C@@H](CCc2ccccc2)NC(=O)[C@H](CCCNC(=N)N)NC(=O)[C@@H](C)NC1=O [CTX-1239, Arg-cyclo(Cys-D-Ala-Arg-D-Hph-Arg-D-Trp-Cys)] (Ac-RC[dA]R[d(hPhe)]R[dW]C-NH2; disulfide 2-8) | 0.1 | 0.3 |  |  |  |  | MC4R cAMP % max activation (human MC4R; hMC4R stable cell line): (28%); MC3R cAMP % max activation (human MC3R; hMC3R stable cell line): (7.9%) |
| CC(=O)N[C@@H](CCCNC(=N)N)C(=O)N[C@H]1CSSC[C@@H](C(N)=O)NC(=O)[C@H](Cc2c[nH]c3ccccc23)NC(=O)[C@H](CCCNC(=N)N)NC(=O)[C@@H](Cc2ccc3ccccc3c2)NC(=O)[C@@H]2CCCN2C(=O)[C@@H](C)NC1=O [CTX-2203] (Ac-RC[dA]P[d2Nal]RWC-NH2; disulfide 2-8 (inferred)) |  | 2.45 | 1.4% | 12 nM | 1% | 29 nM |  |
| CC(=O)N[C@H]1CSSC[C@@H](C(N)=O)NC(=O)[C@H](Cc2c[nH]c3ccccc23)NC(=O)[C@H](CCCNC(=N)N)NC(=O)[C@@H](Cc2ccccc2)NC(=O)[C@H](Cc2c[nH]cn2)NC(=O)[C@@H](C)NC1=O [CTX-1207, cyclo(Cys-D-Ala-His-D-Phe-Arg-Trp-Cys)] |  |  |  |  |  |  | Emax (human MC4R; % maximal activation): 96%; EC50 (human MC4R; MC4R cAMP EC50, HEK-293 cells stably expressing hMC4R): 0.91 nM; Emax (human MC3R; % maximal activation): 89%; EC50 (human MC3R; MC3R cAMP EC50, HEK-293 cells stably expressing hMC3R): 8.1 nM; MC4R selectivity vs MC3R (human MC3R; MC4R versus MC3R): 8.87 |
| CC(=O)N[C@@H](CCCNC(=N)N)C(=O)N[C@H]1CSSC[C@@H](C(N)=O)NC(=O)[C@@H](Cc2c[nH]c3ccccc23)NC(=O)[C@H](CCCNC(=N)N)NC(=O)[C@@H](Cc2ccc(-c3ccccc3)cc2)NC(=O)[C@H](CCCNC(=N)N)NC(=O)[C@@H](C)NC1=O [CTX-1243, Arg-cyclo(Cys-D-Ala-Arg-D-Bip-Arg-D-Trp-Cys)] (Ac-RC[dA]R[dBip]R[dW]C-NH2; disulfide 2-8 (inferred)) | 0.21 | 0.38 | 32% |  | 7.7% |  |  |
| CC(=O)N[C@@H](CCCNC(=N)N)C(=O)N[C@H]1CSSC[C@@H](C(N)=O)NC(=O)[C@H]2Cc3ccccc3CN2C(=O)[C@H](CCCNC(=N)N)NC(=O)[C@@H](Cc2ccc(Br)cc2)NC(=O)[C@H](CCCNC(=N)N)NC(=O)[C@@H](C)NC1=O [CTX-1256, Arg-cyclo(Cys-D-Ala-Arg-D-Phe(4-Br)-Arg-D-Tic-Cys)] (Ac-RC[dA]R[dPhe(4-Br)]R[dTic]C-NH2; disulfide 2-8 (inferred)) | 0.003 | 0.08 | 29% |  | 17% |  |  |
| CC(=O)N[C@@H](CCCNC(=N)N)C(=O)N[C@H]1CSSC[C@@H](C(N)=O)NC(=O)[C@@H](Cc2c[nH]c3ccccc23)NC(=O)[C@H](CCCNC(=N)N)NC(=O)[C@@](C)(Cc2ccccc2)NC(=O)[C@H](CCCNC(=N)N)NC(=O)[C@@H](C)NC1=O [CTX-1240, Arg-cyclo(Cys-D-Ala-Arg-aMe-D-Phe-Arg-D-Trp-Cys)] (Ac-RC[dA]R[d(αMeF)]R[dW]C-NH2; disulfide 2-8) | 0.46 | 0.41 |  |  |  |  | MC4R cAMP % max activation (human MC4R; hMC4R stable cell line): (81%); MC3R cAMP % max activation (human MC3R; hMC3R stable cell line): (27%) |
| CCCC[C@H](NC(=O)[C@H](CCCNC(=N)N)NC(C)=O)C(=O)N[C@H]1CSSC[C@@H](C(N)=O)NC(=O)[C@H](Cc2c[nH]c3ccccc23)NC(=O)[C@H](CCCNC(=N)N)NC(=O)[C@@H](Cc2ccc(Br)cc2)NC(=O)[C@H](CCCNC(=N)N)NC1=O [CTX-1230, Arg-Nle-cyclo(Cys-Arg-D-Phe(4-Br)-Arg-Trp-Cys)] (Ac-R[Nle]CR[dPhe(4-Br)]RWC-NH2; disulfide 3-8) | 0.18 | 1.95 |  | 1.4 nM |  | 3.9 nM | MC4R cAMP % max activation (human MC4R; hMC4R stable cell line): (27%); MC3R cAMP % max activation (human MC3R; hMC3R stable cell line): (23%) |
| CCCC[C@H](NC(=O)[C@H](CCCNC(=N)N)NC(C)=O)C(=O)N[C@H]1CSSC[C@@H](C(N)=O)NC(=O)[C@H](Cc2c[nH]c3ccccc23)NC(=O)[C@H](CCCNC(=N)N)NC(=O)[C@@H](Cc2ccc(Br)cc2)NC(=O)[C@H](Cc2c[nH]cn2)NC1=O [CTX-1229, Arg-Nle-cyclo(Cys-His-D-Phe(4-Br)-Arg-Trp-Cys)] (Ac-R[Nle]CH[dPhe(4-Br)]RWC-NH2; disulfide 3-8 (inferred)) |  |  | 31% |  | 16% | 3.5 nM | MC4R selectivity vs MC1R (human MC4R; cell printed in nM (see doubts)): 18 nM |
